Assay results as given in US11040952B2, “Phthalazinone compound, method for preparation thereof, pharmaceutical composition thereof, and use thereof” (SHANGHAI INSTITUTE OF MATERIA MEDICA, CHINESE ACADEMY OF …, priority 2017, dated 2021).

Tests used:
[1] = MTT assay for cytotoxicity; type: cell-based, Human; conditions: human, HepG2.2.15 cells, half (50%) lethal concentration
Method: (§1) Human hepatoblastoma cell line HepG2.2.15 stably transfected with full-length HBV (provided by Shanghai Institute of Materia Medica, Chinese Academy of Sciences)
(§2) HepG2.2.15 cells were cultured and passaged according to conventional methods. DMEM containing 10% (v/v) bovine serum and the selective antibiotic G418 was used as a medium, the cells were cultured in an incubator at 37° C. under 5% CO2 for 8 days (the medium was exchanged on the 4th day).
(§3) The test compounds were formulated with DMSO into a 40 mM stock solution, which was then prepared into a solution at the defined highest concentration using a DMEM medium containing 10% Hyclone™ Fetal Bovine Serum, followed by diluting the same; the positive drug was lamivudine, which was also prepared into a solution at the defined concentration with the DMEM medium containing 10% Hyclone™ Fetal Bovine Serum.
HepG2.2.15 cells were seeded at 5×10^3 cells/well in a 96-well plate, and cultured for eight days in the presence of the compounds according to the above method, and then 200 μl of the supernatant was taken out, followed by addition of the MTT solution. After 4 hours of culture, a lysate was added. After 12 hours of culture, the OD570 was measured on a microplate reader. By comparing with the absorbance of the control well, the percentage of viable cells was calculated, and CC50, the concentration required for the reduction of cell viability by 50%, was calculated.

HBV = HBV DNA content in the supernatant of cell culture (real-time PCR); type: cell-based, hepatitis B virus (HBV); conditions: Hepatitis B virus, HepG2.2.15, 192 h, inhibition of HBV DNA replication, HepG2.2.15 supernatant, 8 days
Method: as §1, §2, §3
HepG2.2.15 cells were treated with compounds at different concentrations for 8 days (the medium was exchanged on the 4th day), and the supernatant was aspirated, and the HBV DNA contained in the mature virus particles in the supernatant was quantitated by using a real-time PCR method.
1) The supernatant DNA from a 96-well plate, 200 μl/well, was collected, wherein the contents in the duplicate wells were collected into a same EP tube, and centrifuged at 4000 rcf for 5 min, and the supernatant was collected;
2) 200 μl of the supernatant was added into a 1.5 ml EP tube, added with 20 μl of proteinase K and 200 μl of Buffer AL (Qiagen, DNeasy® Blood & Tissue Kit), vortexed to be mixed thoroughly, and incubated at 56° C. for 10 min;
3) 200 μl of ethanol was added and vortexed to be mixed thoroughly;
4) all the liquid obtained from step 3) was added into a DNeasy Mini spin column (Qiagen, DNeasy® Blood & Tissue Kit) placed in a 2 ml waste liquid collection tube, and centrifuged at 6000 rcf for 1 min, and the supernatant was discarded;
5) the DNeasy Mini spin column was placed in a new 2 ml waste liquid collection tube, added with 500 μl of Buffer AW1 (Qiagen, DNeasy® Blood & Tissue Kit), and centrifuged at 6000 rcf for 1 min, and the supernatant was discarded;
6) the DNeasy Mini spin column was placed in a new 2 ml waste liquid collection tube, added with 500 μl of Buffer AW2, (Qiagen, DNeasy® Blood & Tissue Kit), and centrifuged at 20000 rcf for 3 min, and the supernatant was discarded;
7) the DNeasy Mini spin column was placed in anew 1.5 ml EP tube, 50 μl of Buffer AE (Qiagen, DNeasy® Blood & Tissue Kit) was pipetted and directly applied onto the membrane of the DNeasy Mini spin column, which was then left at room temperature for 5 min, and centrifuged at 6000 rcf for 1 min to elute the DNA from the membrane, the DNeasy Mini spin column was discarded, and the DNA sample was collected and stored at −20° C.
1) Standard curve: 1e^7-1e^4 IU/ml, the sample amount was 1 μl, a blank well was set so as to check whether the reaction system is polluted or not;
2) 1 μl of a DNA sample was added in sequence;
3) Addition of enzyme and reaction buffer: two tubes of the reaction solution were first added into the enzyme, mixed well and centrifuged slightly, placed on ice, added with the sample, followed by addition of 19 μl of the enzyme reaction solution, wherein, during the addition, the DNA sample should be sure of not being touched to cause contamination;
4) the sample was sealed with a sealing film and centrifuged;
Stage 2: 10 cycles • Step 1: 93° C., 45 s • Step 2: 55° C., 1 min Stage 3: 45 cycles • Step 1: 93° C., 30 s • Step 2: 55° C., 45 s
Detection: data were collected after completing the step 2 (55° C., 45 s) of the stage 3.
The experimental data were processed by using the Origin software and IC50 was calculated.

SMILES	CC50 at 8 days [1] [µM]	IC50 (HBV) [µM]
CC(C)(C)OC(=O)COCCNc1nc(F)c(-c2nn(Cc3ccc(C#N)cc3)c(=O)c3ccccc23)cc1Cl [IV-59]	> 100	0.78
COCCNc1nc(F)c(-c2nn(Cc3ccc(Cl)cc3)c(=O)c3ccccc23)cc1Cl [IV-29]	26.6	0.0439
[2H]C([2H])(c1ccc(Cl)cc1)n1nc(-c2ccc(C)nc2F)c2ccccc2c1=O [Compound I-25]	> 100	1.3
Cc1ncccc1-c1nn(Cc2ccc(C#N)cc2)c(=O)c2ccccc12 [IV-3]	> 100	5.5
CN(C)Cc1ccc(-c2nn(Cc3ccc(C#N)cc3)c(=O)c3ccccc23)c(F)n1 [IV-21]	> 100	1.3
N#Cc1ccc(Cn2nc(-c3cccnc3C#N)c3ccccc3c2=O)cc1 [IV-4]	> 100	3.3
N#Cc1ccc(Cn2nc(-c3ccc(NCC4CCOCC4)nc3F)c3ccccc3c2=O)cc1 [IV-25]	54.1	1.2
O=c1c2ccccc2c(-c2ccc(C3CC3)nc2F)nn1Cc1ccc(Cl)cc1 [Compound I-31]	> 100	0.6
N#Cc1ccc(Cn2nc(-c3ccc(NCCCCO)nc3F)c3ccccc3c2=O)cc1 [IV-68]	> 100	0.332
[2H]C([2H])([2H])OC([2H])([2H])c1ccc(-c2nn(Cc3ccc(Cl)cc3)c(=O)c3ccccc23)c(F)n1 [Compound I-36]	89	1.5
CC(=O)Nc1ccc(-c2nn(Cc3ccc(C#N)cc3)c(=O)c3ccccc23)c(F)n1 [IV-10]	47.9	1.7
CCNCCNc1ccc(-c2nn(Cc3ccc(C#N)cc3)c(=O)c3ccccc23)c(F)n1 [IV-47]	13	1.72
N#Cc1ccc(Cn2nc(-c3ccc(CN4CCOCC4)nc3F)c3ccccc3c2=O)cc1 [IV-24]	> 100	0.35
Cc1ccc(-c2nn(Cc3ccc(Cl)cc3)c(=O)c3ccc(F)cc23)c(F)n1 [Compound V-1]	> 100	0.7
N#Cc1ccc(Cn2nc(-c3cc(Cl)cnc3F)c3ccccc3c2=O)c(F)c1 [Compound I-42]	33.5	0.378
CCNCCCNc1nc(F)c(-c2nn(Cc3ccc(C#N)cc3)c(=O)c3ccccc23)cc1Cl [IV-54]	8.55	0.47
N#Cc1ccc(Cn2nc(-c3cc(CN4CCOCC4)cnc3F)c3ccccc3c2=O)cc1 [Compound I-45]	> 100	2.02
COC(=O)CCCNc1ccc(-c2nn(Cc3ccc(C#N)cc3)c(=O)c3ccccc23)c(F)n1 [IV-64]	> 100	1.22
N#Cc1ncccc1-c1nn(Cc2ccc(Cl)cc2)c(=O)c2ccccc12 [Compound I-8]	> 100	5.2
CCOC(=O)CCNc1nc(F)c(-c2nn(Cc3ccc(C#N)cc3)c(=O)c3ccccc23)cc1Cl [IV-71]	> 100	2.78
CC(C)(C)OC(=O)NCCCCNc1nc(F)c(-c2nn(Cc3ccc(C#N)cc3)c(=O)c3ccccc23)cc1Cl [IV-46]	> 100	0.014
CC1(C)OCC(CNc2ccc(-c3nn(Cc4ccc(C#N)cc4)c(=O)c4ccccc34)c(F)n2)O1 (stereo not drawn) [IV-78]	> 100	0.341
[2H]C([2H])(OC)c1ccc(-c2nn(Cc3ccc(Cl)cc3)c(=O)c3ccccc23)c(F)n1 [Compound I-35]	> 100	0.3
CC(C)(C)OC(=O)CCNc1ccc(-c2nn(Cc3ccc(C#N)cc3)c(=O)c3ccccc23)c(F)n1 [IV-61]	195	0.465

SMILES	CC50 at 8 days [1] [µM]	IC50 (HBV) [µM]
COCCOc1ccc(-c2nn(Cc3ccc(C#N)cc3)c(=O)c3ccccc23)c(F)n1 [IV-31]	109	0.452
CCOCCNc1nc(F)c(-c2nn(Cc3ccc(C#N)cc3)c(=O)c3ccccc23)cc1Cl [IV-42]	29.8	0.292
N#Cc1ccc(Cn2nc(-c3cc(Cl)c(NCCCCO)nc3F)c3ccccc3c2=O)cc1 [IV-69]	25	0.0081
Cc1ncccc1-c1nn(Cc2ccc(Cl)cc2)c(=O)c2ccccc12 [Compound I-7]	48.9	3.8
CCOCCCNc1ccc(-c2nn(Cc3ccc(C#N)cc3)c(=O)c3ccccc23)c(F)n1 [IV-43]	89.8	0.288
COCCOCCOCCNc1ccc(-c2nn(Cc3ccc(C#N)cc3)c(=O)c3ccccc23)c(F)n1 [IV-49]	93.6	0.166
COc1cc2c(-c3ccc(C)nc3F)nn(Cc3ccc(C#N)cc3)c(=O)c2cc1OC [Compound V-12]	> 100	4.5
CC(C)(C)OC(=O)COCCNc1ccc(-c2nn(Cc3ccc(C#N)cc3)c(=O)c3ccccc23)c(F)n1 [IV-58]	> 100	5.3
Cc1ccc(-c2nn(Cc3ccc(C#N)cc3)c(=O)c3ccccc23)c(F)n1 [IV-6]	> 100	0.8
CC(=O)OCc1ccc(-c2nn(Cc3ccc(Cl)cc3)c(=O)c3ccccc23)c(F)n1 [Compound I-28]	73.1	1
Nc1ccc(-c2nn(Cc3ccc(Cl)cc3)c(=O)c3ccccc23)cn1 [Compound I-5]	51.8	1.5
O=c1c2ccccc2c(-c2c(F)cc(F)nc2F)nn1Cc1ccc(Cl)cc1 [Compound I-23]	> 100	0.6
COCCNc1nc(F)c(-c2nn(Cc3ccc(C#N)cc3)c(=O)c3ccccc23)cc1Cl [IV-27]	> 100	0.0142
CC(O)CNc1ccc(-c2nn(Cc3ccc(C#N)cc3)c(=O)c3ccccc23)c(F)n1 (stereo not drawn) [IV-81]	65.2	0.334
N#Cc1ccc(Cn2nc(-c3cccnc3F)c3ccccc3c2=O)cc1 [IV-2]	> 100	1.18
N#Cc1ccc(Cn2nc(-c3cc(Cl)c(NCCCO)nc3F)c3ccccc3c2=O)cc1 [IV-67]	> 100	0.0042
CN(C)c1ccc(-c2nn(Cc3ccc(C#N)cc3)c(=O)c3ccccc23)c(F)n1 [IV-9]	> 100	1.3
CC(C)(C)OC(=O)NCCCCNc1ccc(-c2nn(Cc3ccc(C#N)cc3)c(=O)c3ccccc23)c(F)n1 [IV-45]	> 100	0.368
CN(C)CCNc1ccc(-c2nn(Cc3ccc(Cl)cc3)c(=O)c3ccccc23)c(F)n1 [Compound I-21]	> 100	1.6
CC(O)CNc1nc(F)c(-c2nn(Cc3ccc(C#N)cc3)c(=O)c3ccccc23)cc1Cl (stereo not drawn) [IV-82]	71.9	0.209
O=c1c2ccccc2c(-c2ccc(NC3CC3)nc2F)nn1Cc1ccc(Cl)cc1 [Compound I-16]	20.1	0.5
O=c1c2ccccc2c(-c2cccnc2)nn1Cc1ccc(Cl)cc1 [Compound I-2]	98.7	3.1
[2H]C(c1ccc(C#N)cc1)n1nc(-c2ccc(F)nc2F)c2ccccc2c1=O (stereo not drawn) [IV-17]	> 100	0.13
CN(C)CCNc1nc(F)c(-c2nn(Cc3ccc(C#N)cc3)c(=O)c3ccccc23)cc1Cl [IV-38]	9.76	0.343
